Test results from patent US20090247533A1, “Ecteinascidins” (The Board of Trustees of the University of Illinois, priority 1994, published 2009).
≈ marks a conversion by molar mass, not a printed value.

How the values were obtained:
DNA synthesis = experiment: Antimetabolism: DNA synthesis inhibition; type: cell-based
RNA polymerase = experiment: Enzyme inhibition: RNA polymerase inhibition; type: biochemical
MEL28 = human melanoma = experiment: Cytotoxicity against MEL28 cells; type: cell-based
[1] = test system: A549 = human lung carcinoma; experiment: Cytotoxicity against A549 cells; type: cell-based
RNA synthesis = experiment: Antimetabolism: RNA synthesis inhibition; type: cell-based
[2] = test system: CV-1 = monkey kidney cells; experiment: Cytotoxicity against CV-1 cells; type: cell-based
protein synthesis = experiment: Antimetabolism: protein synthesis inhibition; type: cell-based
Bacillus subtilis = experiment: Antimicrobial activity against Bacillus subtilis (MIC, disc); type: cell-based; details: for B.s. MIC: Bacillus subtilis
[3] = test system: HT29 = human colon carcinoma; experiment: Cytotoxicity against HT29 cells; type: cell-based
[4] = test system: P388 = murine lymphoma cells; experiment: Cytotoxicity against P388 cells; type: cell-based
Stability in solution = type: physicochemical; details: giving reddish color
DNA polymerase = experiment: Enzyme inhibition: DNA polymerase inhibition; type: biochemical
[5] = test system: P388 murine leukemia, B16 melanoma, Lewis lung carcinoma, and several human tumor xenograft models in mice; details: human tumor xenografts in mice; cited from earlier work
[6] = test system: L1210 = murine lymphoma cells; experiment: Cytotoxicity against L1210 cells; type: cell-based

Row | Compound | DNA (DNA synthesis inhibition) IC50 (DNA synthesis) [µg/mL] | RNAp (RNA polymerase inhibition) IC50 (RNA polymerase) [µg/mL] | B.s. MIC (Bacillus subtilis) [μg/disc] | MEL28 IC50 (MEL28 = human melanoma) [µg/mL] | A549 IC50 [1] [µg/mL] | RNA (RNA synthesis inhibition) IC50 (RNA synthesis) [µg/mL] | CV-1 IC50 [2] [µg/mL] | Prot. (protein synthesis inhibition) IC50 (protein synthesis) [µg/mL] | HT29 IC50 [3] [µg/mL] | P388 IC50 [4] [µg/mL] | also measured
1 | COc1cc2c(cc1OC(C)=O)CCN[C@]21CS[C@@H]2c3c(OC(C)=O)c(C)c4c(c3[C@H](COC1=O)N1[C@@H]2[C@H]2c3c(O)c(OC)c(C)c(Br)c3C[C@@H]([C@@H]1O)N2C)OCO4 [6′-Ac, 15-Br] | 0.5 | 0.42 |  |  |  |  |  |  |  |  | 
2 | COc1c(C)cc2c(c1O)C1NC(C2)C(O)N2C3COC(=O)C(N)CSC(c4c(OC(C)=O)c(C)c(OC)c(O)c43)C12 (centres unmarked) [Et 583, Ecteinascidin 583] |  | 0.5 | 0.74 |  |  |  |  |  |  |  | IC50 (DNA synthesis): 1 µg/mL (≈ 1.66 µM); IC50 (MEL28 = human melanoma; SK-MEL-28): 0.005 µg/mL (≈ 0.00831 µM); IC50 [1]: 0.01 µg/mL (≈ 0.0166 µM); IC50 (RNA synthesis): 0.4 µg/mL (≈ 0.665 µM); IC50 ([2]; Primates): 0.025 µg/mL (≈ 0.0416 µM); IC50 (protein synthesis; read-out: Prot. (protein synthesis inhibition) IC50): 1 µg/mL (≈ 1.66 µM); IC50 ([3]; HT-29): 0.01 µg/mL (≈ 0.0166 µM); IC50 ([4]; Mus musculus): 0.01 µg/mL (≈ 0.0166 µM)
3 | COc1c(C)cc2c(c1O)C1C3[C@@H]4SCC(=O)C(=O)OC[C@@H](c5c6c(c(C)c(OC(C)=O)c54)OCO6)N3[C@@H](O)[C@H](C2)N1C (some centres unmarked) [Et 594, Ecteinascidin 594] | 0.5 | 1.0 | 0.37 | 0.025 | 0.02 | 0.5 | 0.025 | 0.8 | 0.025 | 0.01 | 
4 | COc1c(C)cc2c(c1O)[C@@H]1[C@@H]3[C@@H]4SC[C@H](N)C(=O)OC[C@@H](c5c(O)c(OC)c(C)c(OC(C)=O)c54)N3[C@@H](O)[C@@H](C2)N1C [Et 597, Ecteinascidin 597] | 0.08 | 0.25 | 0.14 | 0.002 | 0.002 | 0.01 | 0.0025 | 0.7 | 0.002 | 0.002 | stability in solution (Stability in solution): decomposed slowly in solution
5 | COc1c(C)cc2c(c1O)[C@H]1N[C@@H](C2)[C@H](O)N2[C@H]1[C@@H]1SC[C@]3(NCCc4c3[nH]c3ccccc43)C(=O)OC[C@H]2c2c3c(c(C)c(OC(C)=O)c21)OCO3 [Et 722] | 0.4 | 0.5 | 0.70 | 0.002 | 0.001 | 0.1 | 0.005 | 0.9 | 0.002 | 0.001 | DNAp (DNA polymerase inhibition) IC50 (DNA polymerase): >1 µg/mL; efficacy in vivo [5]: promising efficacy in vivo
6 | COc1cc2c(cc1O)CCNC21CSC2c3c(OC(C)=O)c(C)c4c(c3C(COC1=O)N1CC3Cc5cc(C)c(OC)c(O)c5C(N3)C21)OCO4 (centres unmarked) [Et 731, Ecteinascidin 731] |  |  | 6.20 | 0.2 | 0.1 |  | 0.2 | >1 | 0.1 | 0.1 | 
7 | COc1c(C)cc2c(c1O)[C@@H]1[C@@H]3[C@@H]4SC[C@]5(NCCc6c5[nH]c5ccccc65)C(=O)OC[C@@H](c5c6c(c(C)c(OC(C)=O)c54)OCO6)N3[C@@H](O)[C@H](C2)N1C [Et 736] | 0.4 | 0.5 | 0.38 | 0.0025 | 0.001 | 0.1 | 0.0025 | 0.5 | 0.0025 | 0.0005 | 
8 | COc1cc2c(cc1O)CCN[C@]21CS[C@@H]2c3c(OC(C)=O)c(C)c4c(c3[C@H](COC1=O)N1[C@@H]2[C@H]2c3c(cc(C)c(OC)c3O)C[C@@H]([C@@H]1O)N2C)OCO4 [Et 743] | 0.1 | 0.1 | 0.02 | 0.005 | 0.0002 | 0.03 | 0.001 | >1 | 0.0005 | 0.0002 | L1210 IC50 [6]: 0.005 µg/mL; DNAp (DNA polymerase inhibition) IC50 (DNA polymerase): 2 µg/mL; efficacy in vivo [5]: promising efficacy in vivo
9 | COc1cc2c(cc1O)CCNC21C[S+]([O-])C2c3c(OC(C)=O)c(C)c4c(c3C(COC1=O)N1C(O)C3Cc5cc(C)c(OC)c(O)c5C(N3)C21)OCO4 (centres unmarked) [Et 745B, Ecteinascidin 745B] | >1 | 3 |  |  | 0.01 | 0.5 | 0.025 |  | 0.01 | 0.005 | L1210 IC50 [6]: 0.025 µg/mL
10 | COc1cc2c(cc1O)CCN[C@]21CS[C@@H]2c3c(OC(C)=O)c(C)c4c(c3[C@H](COC1=O)N1C[C@@H]3Cc5cc(C)c(OC)c(O)c5[C@H]([C@H]21)N3C)OCO4 [Et 745] | >1 |  | 6.50 | 0.05 | 0.02 | 0.3 | 0.05 |  | 0.025 | 0.01 | 
11 | COc1cc2c(cc1O)CCN[C@]21C[S+]([O-])[C@@H]2c3c(OC(C)=O)c(C)c4c(c3[C@H](COC1=O)N1[C@H]2[C@H]2c3c(cc(C)c(OC)c3O)C[C@@H]([C@H]1O)N2C)OCO4 (some centres unmarked) [Et 759B] | 0.7 | >1 | 3.90 | 0.01 | 0.005 | 0.5 | 0.025 | >1 | 0.005 | 0.005 | 
12 | COc1cc2c(cc1O)CCNC21CSC2c3c(OC(C)=O)c(C)c4c(c3C(COC1=O)N1C(C(C=O)C=O)C3Cc5cc(C)c(OC)c(O)c5C(C21)N3C)OCO4 (centres unmarked) [Et 815, Ecteinascidin 815] | >1 |  | 0.75 |  | 0.005 | 0.1 | 0.005 |  | 0.005 | 0.0025 | L1210 IC50 [6]: 0.025 µg/mL
13 | COc1cc2c(cc1O)CCNC21CSC2c3c(OC(C)=O)c(C)c4c(c3C(COC1=O)N1C(O)C3Cc5c(Br)c(C)c(OC)c(O)c5C(C21)N3C=O)OCO4 (centres unmarked) [N—CHO, 15-Br (18)] |  |  |  |  | 0.2 |  | 0.25 |  | 0.2 | 0.05 | 
14 | COc1cc2c(cc1O)CCNC21CSC2c3c(OC(C)=O)c(C)c4c(c3C(COC1=O)N1C(O)C3Cc5cc(C)c(OC)c(O)c5C(C21)N3C=O)OCO4 (centres unmarked) [N—CHO] |  | 4 | 6.60 |  |  |  |  |  |  |  | 
15 | Ecteinascidin 596 [Et 596] |  |  |  |  |  |  |  |  |  |  | antimicrobial activity against B. subtilis (MIC) (Bacillus subtilis; crude sample, single major peak by FABMS): 0.3 μg/disc
